Measured values: ChEMBL document CHEMBL1201862, “PubChem BioAssay data set” (2004)
Each block holds one molecule with its values, some of them ahead of it. Calls of active or inactive are those of the source.

How the values were obtained:
[1] = target: T1, Short transient receptor potential channel 4 (Mus musculus, UniProt Q9QUQ5); assay: potentiation of DAMGO-evoked TRPC4 calcium signal – cell-based, HEK293 TRPC4/mu-opioid, Fluo-4 calcium, EC20 DAMGO, dose response (AID 434941); type: functional
T1 sequence (Q9QUQ5 whole entry): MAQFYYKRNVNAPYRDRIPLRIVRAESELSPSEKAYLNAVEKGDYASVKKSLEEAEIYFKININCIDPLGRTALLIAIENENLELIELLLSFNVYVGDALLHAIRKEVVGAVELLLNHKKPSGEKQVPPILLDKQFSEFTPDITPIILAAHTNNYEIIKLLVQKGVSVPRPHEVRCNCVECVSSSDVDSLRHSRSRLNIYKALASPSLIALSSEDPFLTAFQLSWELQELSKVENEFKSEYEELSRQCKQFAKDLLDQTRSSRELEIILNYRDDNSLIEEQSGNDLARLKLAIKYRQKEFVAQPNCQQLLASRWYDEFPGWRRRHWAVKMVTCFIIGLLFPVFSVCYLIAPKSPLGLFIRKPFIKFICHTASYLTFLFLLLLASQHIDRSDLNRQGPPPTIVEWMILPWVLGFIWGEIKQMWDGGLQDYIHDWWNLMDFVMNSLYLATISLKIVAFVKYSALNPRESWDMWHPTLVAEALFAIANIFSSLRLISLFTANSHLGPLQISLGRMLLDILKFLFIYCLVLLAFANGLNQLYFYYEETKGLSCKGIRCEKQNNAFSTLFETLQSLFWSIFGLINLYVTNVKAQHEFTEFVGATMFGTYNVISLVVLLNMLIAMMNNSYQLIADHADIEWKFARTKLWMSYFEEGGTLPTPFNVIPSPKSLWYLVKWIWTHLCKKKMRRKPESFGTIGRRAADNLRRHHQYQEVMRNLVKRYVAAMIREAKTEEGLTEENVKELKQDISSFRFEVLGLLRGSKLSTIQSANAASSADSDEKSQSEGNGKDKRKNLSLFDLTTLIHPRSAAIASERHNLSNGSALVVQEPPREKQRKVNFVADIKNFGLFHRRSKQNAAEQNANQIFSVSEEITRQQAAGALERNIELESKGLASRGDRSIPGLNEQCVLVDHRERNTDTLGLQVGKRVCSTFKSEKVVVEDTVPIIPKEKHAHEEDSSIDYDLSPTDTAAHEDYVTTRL

[2] = target: T2, Corticotropin-releasing factor receptor 2/Corticotropin-releasing factor-binding protein (Homo sapiens, UniProt P24387+Q13324); assay: activators of CRF receptor 2 with binding protein – uHTS hits, confirmation (AID 602473); type: functional; conditions: read-out: EC50_Mean
T2 sequence (Q13324 whole entry): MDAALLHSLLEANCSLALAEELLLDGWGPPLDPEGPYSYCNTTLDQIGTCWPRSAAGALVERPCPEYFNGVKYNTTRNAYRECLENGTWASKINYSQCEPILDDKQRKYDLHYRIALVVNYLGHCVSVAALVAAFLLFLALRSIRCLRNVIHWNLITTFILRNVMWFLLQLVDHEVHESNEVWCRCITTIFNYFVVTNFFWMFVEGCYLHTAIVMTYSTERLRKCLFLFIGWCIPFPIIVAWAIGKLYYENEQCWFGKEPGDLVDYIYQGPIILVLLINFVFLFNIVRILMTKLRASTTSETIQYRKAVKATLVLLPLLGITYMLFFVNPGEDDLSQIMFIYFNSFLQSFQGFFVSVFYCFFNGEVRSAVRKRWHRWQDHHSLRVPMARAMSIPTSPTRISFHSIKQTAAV
T2 sequence (P24387 whole entry): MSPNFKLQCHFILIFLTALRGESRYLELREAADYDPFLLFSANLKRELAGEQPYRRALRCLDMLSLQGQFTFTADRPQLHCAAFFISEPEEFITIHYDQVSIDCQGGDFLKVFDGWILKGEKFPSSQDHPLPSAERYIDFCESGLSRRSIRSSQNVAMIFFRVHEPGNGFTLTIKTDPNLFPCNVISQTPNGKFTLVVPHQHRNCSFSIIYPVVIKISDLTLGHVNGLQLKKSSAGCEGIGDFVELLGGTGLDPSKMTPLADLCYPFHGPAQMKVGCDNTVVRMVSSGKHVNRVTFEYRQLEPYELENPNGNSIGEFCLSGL

Hexokinase = target: T3, Hexokinase (Trypanosoma brucei, UniProt Q38C41); assay: Confirmation assay for inhibitors of Trypanosoma brucei hexokinase 1-Analogue-first series. [Related pubchem assays (depositor defined):AID1430, AID1632, AID2516, AID2560, AID2579, AID2600, AID449725, AID492951]; type: functional
T3 sequence (Q38C41 whole entry): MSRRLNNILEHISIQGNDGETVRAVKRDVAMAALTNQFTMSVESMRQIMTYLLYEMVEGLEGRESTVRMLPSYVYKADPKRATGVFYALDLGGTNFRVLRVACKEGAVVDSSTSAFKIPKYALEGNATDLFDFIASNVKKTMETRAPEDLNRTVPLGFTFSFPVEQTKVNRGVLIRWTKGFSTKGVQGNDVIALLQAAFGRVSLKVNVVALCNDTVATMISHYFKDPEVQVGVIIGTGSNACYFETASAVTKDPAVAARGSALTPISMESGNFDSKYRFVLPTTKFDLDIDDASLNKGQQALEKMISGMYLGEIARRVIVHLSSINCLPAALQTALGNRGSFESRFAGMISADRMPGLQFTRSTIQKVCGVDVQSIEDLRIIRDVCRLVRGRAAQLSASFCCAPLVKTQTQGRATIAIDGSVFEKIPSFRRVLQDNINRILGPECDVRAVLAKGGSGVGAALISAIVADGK

[3] = target: T4, Voltage-gated N-type calcium channel alpha-1B subunit/Amyloid beta A4 precursor protein-binding family A member 1 (Homo sapiens, UniProt Q00975+Q02410); type: protein assay
T4 sequence (Q00975 whole entry): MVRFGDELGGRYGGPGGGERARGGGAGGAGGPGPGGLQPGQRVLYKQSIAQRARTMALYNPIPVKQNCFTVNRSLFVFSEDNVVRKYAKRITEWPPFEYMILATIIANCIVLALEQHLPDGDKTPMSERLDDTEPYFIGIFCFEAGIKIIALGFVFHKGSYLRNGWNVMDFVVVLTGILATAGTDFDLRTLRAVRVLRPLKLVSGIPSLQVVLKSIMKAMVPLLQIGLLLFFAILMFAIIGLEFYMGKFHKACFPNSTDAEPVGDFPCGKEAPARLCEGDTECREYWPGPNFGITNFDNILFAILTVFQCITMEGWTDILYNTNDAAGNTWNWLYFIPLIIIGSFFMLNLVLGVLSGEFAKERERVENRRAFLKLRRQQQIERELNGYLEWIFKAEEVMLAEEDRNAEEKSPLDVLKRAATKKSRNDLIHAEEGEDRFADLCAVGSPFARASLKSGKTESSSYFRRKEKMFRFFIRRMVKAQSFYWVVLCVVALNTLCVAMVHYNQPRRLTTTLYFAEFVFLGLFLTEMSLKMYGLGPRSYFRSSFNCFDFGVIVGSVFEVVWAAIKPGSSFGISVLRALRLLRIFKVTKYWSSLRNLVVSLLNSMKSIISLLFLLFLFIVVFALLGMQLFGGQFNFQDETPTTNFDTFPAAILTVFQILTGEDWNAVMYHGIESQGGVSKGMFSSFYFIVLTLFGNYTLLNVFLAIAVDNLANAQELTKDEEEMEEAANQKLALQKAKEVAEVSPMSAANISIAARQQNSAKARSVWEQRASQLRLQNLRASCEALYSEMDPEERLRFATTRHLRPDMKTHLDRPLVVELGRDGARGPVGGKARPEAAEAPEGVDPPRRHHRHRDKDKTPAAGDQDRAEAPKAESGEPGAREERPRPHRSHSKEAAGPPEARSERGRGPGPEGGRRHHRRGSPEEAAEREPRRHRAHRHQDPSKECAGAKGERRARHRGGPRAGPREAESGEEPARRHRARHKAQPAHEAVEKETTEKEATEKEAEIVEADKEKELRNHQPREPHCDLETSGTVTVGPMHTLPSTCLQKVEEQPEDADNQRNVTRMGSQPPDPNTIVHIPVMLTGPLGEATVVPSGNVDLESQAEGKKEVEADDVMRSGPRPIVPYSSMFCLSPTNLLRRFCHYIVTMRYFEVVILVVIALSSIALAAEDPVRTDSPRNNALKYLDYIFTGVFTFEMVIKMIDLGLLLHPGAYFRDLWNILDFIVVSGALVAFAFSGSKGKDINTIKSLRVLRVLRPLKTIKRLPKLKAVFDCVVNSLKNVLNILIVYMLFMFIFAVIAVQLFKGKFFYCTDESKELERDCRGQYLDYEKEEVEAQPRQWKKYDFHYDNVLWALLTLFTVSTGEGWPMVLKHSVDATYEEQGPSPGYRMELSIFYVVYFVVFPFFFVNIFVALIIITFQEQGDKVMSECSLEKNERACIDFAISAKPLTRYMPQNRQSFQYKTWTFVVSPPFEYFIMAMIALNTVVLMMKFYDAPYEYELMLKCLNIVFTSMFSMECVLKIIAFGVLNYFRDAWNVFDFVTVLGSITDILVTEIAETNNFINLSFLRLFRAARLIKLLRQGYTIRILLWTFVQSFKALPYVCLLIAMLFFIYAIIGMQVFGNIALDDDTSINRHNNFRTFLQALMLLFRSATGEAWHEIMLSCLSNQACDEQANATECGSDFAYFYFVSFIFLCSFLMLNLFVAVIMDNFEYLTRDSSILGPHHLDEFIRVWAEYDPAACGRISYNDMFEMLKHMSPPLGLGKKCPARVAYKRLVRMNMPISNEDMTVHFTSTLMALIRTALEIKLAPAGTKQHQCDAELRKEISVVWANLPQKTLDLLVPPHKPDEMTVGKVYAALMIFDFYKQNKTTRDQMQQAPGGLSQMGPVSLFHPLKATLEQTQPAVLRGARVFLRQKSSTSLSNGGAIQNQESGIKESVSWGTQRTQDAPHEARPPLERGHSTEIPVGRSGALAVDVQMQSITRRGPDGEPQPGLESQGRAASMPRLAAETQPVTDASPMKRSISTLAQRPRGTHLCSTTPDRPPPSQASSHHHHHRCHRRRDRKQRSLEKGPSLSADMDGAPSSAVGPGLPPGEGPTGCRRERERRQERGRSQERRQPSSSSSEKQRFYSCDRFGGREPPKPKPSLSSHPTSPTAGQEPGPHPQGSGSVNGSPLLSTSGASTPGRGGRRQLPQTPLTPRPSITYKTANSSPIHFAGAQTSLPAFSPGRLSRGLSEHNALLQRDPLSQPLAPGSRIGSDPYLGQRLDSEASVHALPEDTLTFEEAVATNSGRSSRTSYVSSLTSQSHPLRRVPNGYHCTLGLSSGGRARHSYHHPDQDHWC
T4 sequence (Q02410 whole entry): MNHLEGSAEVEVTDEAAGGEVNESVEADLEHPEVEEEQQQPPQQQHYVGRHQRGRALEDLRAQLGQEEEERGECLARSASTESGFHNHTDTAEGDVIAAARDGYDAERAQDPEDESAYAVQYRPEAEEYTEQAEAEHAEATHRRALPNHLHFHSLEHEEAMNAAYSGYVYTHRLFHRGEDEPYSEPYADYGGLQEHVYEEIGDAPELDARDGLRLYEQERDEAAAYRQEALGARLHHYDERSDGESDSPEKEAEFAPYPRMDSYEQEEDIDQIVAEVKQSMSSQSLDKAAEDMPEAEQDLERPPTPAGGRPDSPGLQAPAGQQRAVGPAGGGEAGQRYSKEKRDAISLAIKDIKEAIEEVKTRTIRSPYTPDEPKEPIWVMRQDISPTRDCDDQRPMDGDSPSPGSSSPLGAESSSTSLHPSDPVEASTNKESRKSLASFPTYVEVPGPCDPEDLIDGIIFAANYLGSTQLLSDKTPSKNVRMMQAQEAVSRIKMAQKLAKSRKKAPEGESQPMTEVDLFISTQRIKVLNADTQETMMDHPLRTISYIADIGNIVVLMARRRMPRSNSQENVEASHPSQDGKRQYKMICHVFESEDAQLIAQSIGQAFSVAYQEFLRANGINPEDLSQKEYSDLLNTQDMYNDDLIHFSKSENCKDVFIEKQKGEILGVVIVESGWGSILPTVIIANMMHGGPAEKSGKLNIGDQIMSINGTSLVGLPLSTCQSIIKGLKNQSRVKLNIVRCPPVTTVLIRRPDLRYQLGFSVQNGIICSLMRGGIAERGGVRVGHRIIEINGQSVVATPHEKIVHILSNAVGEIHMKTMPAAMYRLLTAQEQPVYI

[4] = target: T5, Heat shock factor protein 1 (Mus musculus, UniProt P38532); assay: decrease of HSF1-responsive luciferase luminescence – cell-based, NIH3T3, dose retest, confirmation (AID 2382); type: functional;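 note: NIH3T3 fibroblasts with HSF1-driven luciferase reporter stressed by proteasome inhibitor MG132; luminescence from HSF1-driven luciferase expression after 8 hours of MG132 stress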
T5 sequence (P38532 whole entry): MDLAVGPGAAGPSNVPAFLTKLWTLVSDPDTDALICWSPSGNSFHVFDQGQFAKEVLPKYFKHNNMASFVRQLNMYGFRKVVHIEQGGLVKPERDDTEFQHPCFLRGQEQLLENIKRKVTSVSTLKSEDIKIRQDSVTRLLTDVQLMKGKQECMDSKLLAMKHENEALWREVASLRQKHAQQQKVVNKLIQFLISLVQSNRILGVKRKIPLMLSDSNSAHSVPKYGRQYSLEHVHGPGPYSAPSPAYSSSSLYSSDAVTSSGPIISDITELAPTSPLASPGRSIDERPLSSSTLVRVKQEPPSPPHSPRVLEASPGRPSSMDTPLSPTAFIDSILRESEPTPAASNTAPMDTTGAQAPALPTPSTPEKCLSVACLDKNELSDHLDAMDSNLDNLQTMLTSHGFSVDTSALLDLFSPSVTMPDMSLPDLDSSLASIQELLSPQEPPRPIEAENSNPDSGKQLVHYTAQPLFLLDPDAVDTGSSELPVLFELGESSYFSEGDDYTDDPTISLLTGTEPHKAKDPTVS

[5] = target: Luciferin 4-monooxygenase (Photinus pyralis, UniProt P08659); assay: inhibition of purified Photinus pyralis luciferase – biochemical, luminescence, dose response (AID 1891)
Sequence of Luciferin 4-monooxygenase (P08659 whole entry): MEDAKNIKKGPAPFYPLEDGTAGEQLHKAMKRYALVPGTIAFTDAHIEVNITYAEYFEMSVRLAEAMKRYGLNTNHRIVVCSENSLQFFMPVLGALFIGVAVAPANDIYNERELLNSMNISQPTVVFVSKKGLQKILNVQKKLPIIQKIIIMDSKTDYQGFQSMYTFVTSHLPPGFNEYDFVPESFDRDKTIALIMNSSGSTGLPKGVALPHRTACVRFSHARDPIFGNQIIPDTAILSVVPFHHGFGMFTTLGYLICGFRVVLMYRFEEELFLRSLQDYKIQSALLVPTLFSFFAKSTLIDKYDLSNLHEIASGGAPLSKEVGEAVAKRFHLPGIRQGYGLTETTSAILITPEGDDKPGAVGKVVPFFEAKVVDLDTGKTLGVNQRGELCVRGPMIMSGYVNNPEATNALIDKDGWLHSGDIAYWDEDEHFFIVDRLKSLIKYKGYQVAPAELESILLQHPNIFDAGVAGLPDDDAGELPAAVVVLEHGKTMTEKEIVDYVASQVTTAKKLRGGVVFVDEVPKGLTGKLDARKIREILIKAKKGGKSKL

[6] = Luminescence Cell-Based Dose Confirmation HTS to Identify Inhibitors of Platelet Dense Granule Release. [Related pubchem assays: 1663 (Primary HTS), 1678 (Summary of Project)]; type: functional
[7] = target: T4, Voltage-gated N-type calcium channel alpha-1B subunit/Amyloid beta A4 precursor protein-binding family A member 1; type: protein assay; remark: listed apart in the source
Saccharomyces cerevisiae = assay: S. cerevisiae Caspase-1/ASC signal blockers IC50, NALP1 inhibitor project selectivity test (AID 488863); type: functional, organism-based
[8] = target: T6, NACHT, LRR and PYD domains-containing protein 1 (Homo sapiens, UniProt Q9C000); assay: NALP1 inhibitors in yeast, dose response, luminescent (AID 488860); type: functional
T6 sequence (Q9C000 whole entry): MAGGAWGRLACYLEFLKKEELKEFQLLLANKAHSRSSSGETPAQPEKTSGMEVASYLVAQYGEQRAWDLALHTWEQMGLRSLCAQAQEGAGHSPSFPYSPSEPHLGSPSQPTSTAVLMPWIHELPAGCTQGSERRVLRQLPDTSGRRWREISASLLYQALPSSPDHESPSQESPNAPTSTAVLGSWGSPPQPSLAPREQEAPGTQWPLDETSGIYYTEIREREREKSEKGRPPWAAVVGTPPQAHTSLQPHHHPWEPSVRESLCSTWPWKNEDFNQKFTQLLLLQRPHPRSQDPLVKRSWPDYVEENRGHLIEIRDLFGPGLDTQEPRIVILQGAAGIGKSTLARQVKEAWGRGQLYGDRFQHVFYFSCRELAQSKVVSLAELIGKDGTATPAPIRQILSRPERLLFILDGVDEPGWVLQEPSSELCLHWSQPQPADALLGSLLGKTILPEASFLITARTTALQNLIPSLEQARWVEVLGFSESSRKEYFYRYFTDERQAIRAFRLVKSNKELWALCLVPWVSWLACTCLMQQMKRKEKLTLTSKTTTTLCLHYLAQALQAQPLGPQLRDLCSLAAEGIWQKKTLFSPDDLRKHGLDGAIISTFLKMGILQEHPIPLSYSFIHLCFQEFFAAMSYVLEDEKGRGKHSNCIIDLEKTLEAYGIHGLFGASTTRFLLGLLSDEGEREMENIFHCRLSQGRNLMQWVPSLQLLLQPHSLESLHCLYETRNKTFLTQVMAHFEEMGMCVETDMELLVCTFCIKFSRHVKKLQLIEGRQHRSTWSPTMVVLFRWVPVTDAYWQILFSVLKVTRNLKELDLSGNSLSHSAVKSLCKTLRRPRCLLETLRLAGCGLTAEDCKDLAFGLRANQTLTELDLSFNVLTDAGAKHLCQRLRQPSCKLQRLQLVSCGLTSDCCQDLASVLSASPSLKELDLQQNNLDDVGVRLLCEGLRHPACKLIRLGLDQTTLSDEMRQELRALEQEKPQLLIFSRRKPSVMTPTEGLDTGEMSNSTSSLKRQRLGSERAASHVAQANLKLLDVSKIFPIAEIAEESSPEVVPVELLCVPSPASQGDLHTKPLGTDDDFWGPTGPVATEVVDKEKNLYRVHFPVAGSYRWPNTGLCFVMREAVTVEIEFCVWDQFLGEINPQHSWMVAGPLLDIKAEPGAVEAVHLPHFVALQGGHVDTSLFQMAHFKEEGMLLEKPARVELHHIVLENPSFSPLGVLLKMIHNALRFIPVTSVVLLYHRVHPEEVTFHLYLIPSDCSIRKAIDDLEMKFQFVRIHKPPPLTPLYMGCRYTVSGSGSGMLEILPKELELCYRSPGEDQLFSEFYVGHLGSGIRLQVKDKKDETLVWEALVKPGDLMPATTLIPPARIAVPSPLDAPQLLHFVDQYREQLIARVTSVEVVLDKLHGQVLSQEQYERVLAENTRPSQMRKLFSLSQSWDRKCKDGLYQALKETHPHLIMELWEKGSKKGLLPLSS

[9] = target: DNA damage-inducible transcript 3 protein (Mus musculus, UniProt P35639); type: functional, Cricetulus griseus
Sequence of DNA damage-inducible transcript 3 protein (P35639 whole entry): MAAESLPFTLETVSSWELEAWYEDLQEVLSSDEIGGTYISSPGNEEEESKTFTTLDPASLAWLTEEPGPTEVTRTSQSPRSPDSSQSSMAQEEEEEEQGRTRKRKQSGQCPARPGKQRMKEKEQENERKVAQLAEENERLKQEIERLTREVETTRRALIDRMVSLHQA

[10] = target: Heat shock protein HSP 90-alpha (Homo sapiens, UniProt P07900); type: functional, organism-based
X-box-binding protein 1 = target: T7, X-box-binding protein 1 (Homo sapiens, UniProt P17861); type: functional, Cricetulus griseus;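 note: confirmatory dose-response counter-screen serving a CHOP assay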
T7 sequence (P17861 whole entry): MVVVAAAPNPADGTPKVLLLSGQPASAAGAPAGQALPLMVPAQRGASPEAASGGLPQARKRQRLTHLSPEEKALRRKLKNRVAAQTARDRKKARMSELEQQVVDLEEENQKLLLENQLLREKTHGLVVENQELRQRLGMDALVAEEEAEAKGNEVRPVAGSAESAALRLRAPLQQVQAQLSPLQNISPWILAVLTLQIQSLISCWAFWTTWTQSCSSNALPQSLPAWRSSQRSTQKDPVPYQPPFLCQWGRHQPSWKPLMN

H9c2 = assay: cells; type: functional, cell-based; conditions: Rattus norvegicus, H9c2, Myocardium;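 note: confirmatory concentration-response retest of ultra-high-throughput screening hits for modulation of myocardial damage; cell death induced by hydrogen peroxide oxidative stress; compound pretreatment for 60 min then peroxide exposure for 2 h; potency is for protecting the cells against peroxide damage rather than for killing them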
[11] = target: T1, Short transient receptor potential channel 4; assay: calcium entry via TRPC4 opening agents – cell-based, HEK293 TRPC4/mu-opioid, Fluo-4 calcium, dose response (AID 434937); type: functional
[12] = HEK-293T viability loss after treatment – luminescence, T-cell screen hits, cytotoxicity control for TCR NF-kB inhibitor project, dose response (AID 489026); type: functional, cell-based;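 note: cells exposed to compound about 14 hours before the viability readout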

EC50 [1]: 0.13 µM (active) | EC50 [2]: 2.38 µM (active)
Structure (SMILES): O=C(O)CCNc1nc(-c2ccccc2)c2cc(Br)ccc2n1

Structure (SMILES): O=C(Cn1sc2ccccc2c1=O)Nc1cccc(I)c1
IC50 (Hexokinase): > 25 µM (inactive)

Structure (SMILES): O=c1c2cc(Br)ccc2[s+]([O-])n1-c1ccccc1 (stereo not given)
IC50 (Hexokinase): > 25 µM (inactive)

Structure (SMILES): COC(=O)/C=C\C(=O)Nc1cccc([N+](=O)[O-])c1
IC50 [3]: 10.1 µM (active) | EC50 [4]: > 195 µM (not active) | EC50 [5]: > 112 µM (not active) | EC50 [6]: 9.34 µM (active) | IC50 [7]: 2.1 µM (active) | IC50 (Saccharomyces cerevisiae): 7.1 µM (active) | IC50 [8]: 10.9 µM (active) | Absolute IC50 (CHOP) [9]: 10 µM | AC50 [10]: 3.67 µM (active)

EC50 [1]: 0.75 µM (active)
Structure (SMILES): CC(C)c1c(O)nc(SCCN(C)C)nc1O

Structure (SMILES): CCOC(=O)Cc1csc(NC(=O)NC2(C(F)(F)F)Oc3ccc(Cl)cc3O2)n1 (stereo not given)
Absolute IC50 (CHOP) [9]: 10 µM | Absolute IC50 (XBP1) (X-box-binding protein 1): 10 µM | IC50 (H9c2): > 79 µM (inactive)

EC50 [1]: 0.38 µM (active) | EC50 [11]: 5.96 µM (active)
Structure (SMILES): COc1ccc(/N=C(\C)C2=C(O)C(=O)N(CCO)C2c2ccc(Br)cc2)cc1 (stereo not given)

Structure (SMILES): COC(=O)c1ccccc1NC(=O)CSc1nc(-c2ccco2)cc(C(F)(F)F)n1
IC50 [12]: > 80 µM (inactive)
